Data from ChEMBL document CHEMBL1201862, “PubChem BioAssay data set” (2004).
Calls of active or inactive are those of the source.

Legend:
[1] = biological target: T1, Sentrin-specific protease 7 (Homo sapiens, UniProt Q9BQF6); assay: SENP7 protease inhibitors, SAR follow-up, biochemical, luminescence (AID 504497); assay type: functional
T1 sequence (Q9BQF6 whole entry): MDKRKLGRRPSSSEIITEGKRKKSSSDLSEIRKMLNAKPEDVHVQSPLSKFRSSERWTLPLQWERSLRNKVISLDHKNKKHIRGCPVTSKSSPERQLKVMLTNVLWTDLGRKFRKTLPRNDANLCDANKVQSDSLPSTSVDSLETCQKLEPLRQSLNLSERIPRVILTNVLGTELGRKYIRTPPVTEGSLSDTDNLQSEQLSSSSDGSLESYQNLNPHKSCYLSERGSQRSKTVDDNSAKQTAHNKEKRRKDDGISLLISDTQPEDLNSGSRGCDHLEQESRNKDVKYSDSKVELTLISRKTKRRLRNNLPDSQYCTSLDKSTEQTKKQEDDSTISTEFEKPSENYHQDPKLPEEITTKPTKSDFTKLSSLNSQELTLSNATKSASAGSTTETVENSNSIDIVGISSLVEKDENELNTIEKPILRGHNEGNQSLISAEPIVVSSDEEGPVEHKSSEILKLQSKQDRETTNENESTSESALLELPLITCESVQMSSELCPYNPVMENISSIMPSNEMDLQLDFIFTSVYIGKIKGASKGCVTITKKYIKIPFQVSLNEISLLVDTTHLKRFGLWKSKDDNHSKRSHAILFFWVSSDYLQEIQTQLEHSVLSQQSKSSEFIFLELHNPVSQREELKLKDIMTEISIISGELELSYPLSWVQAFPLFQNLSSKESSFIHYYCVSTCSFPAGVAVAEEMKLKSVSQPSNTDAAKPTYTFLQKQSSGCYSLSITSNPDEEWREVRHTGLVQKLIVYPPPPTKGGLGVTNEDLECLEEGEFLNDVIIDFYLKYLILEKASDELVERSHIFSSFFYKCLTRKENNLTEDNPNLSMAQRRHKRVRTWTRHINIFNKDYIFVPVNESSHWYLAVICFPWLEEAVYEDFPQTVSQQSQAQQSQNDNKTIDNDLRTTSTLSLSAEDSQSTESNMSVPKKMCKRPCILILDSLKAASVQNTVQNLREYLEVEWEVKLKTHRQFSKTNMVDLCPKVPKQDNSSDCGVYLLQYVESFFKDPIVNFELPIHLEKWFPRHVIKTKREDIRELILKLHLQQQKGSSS

[2] = biological target: T2, Caspase-3 (Homo sapiens, UniProt P42574); assay: SAR Analysis of small molecule inhibitors of Sentrin-specific proteases (SENPs) using a Caspase-3 Selectivity assay. [Related pubchem assays (depositor defined):AID2540, AID2599, AID434973, AID489001]; assay type: functional
T2 sequence (P42574 whole entry): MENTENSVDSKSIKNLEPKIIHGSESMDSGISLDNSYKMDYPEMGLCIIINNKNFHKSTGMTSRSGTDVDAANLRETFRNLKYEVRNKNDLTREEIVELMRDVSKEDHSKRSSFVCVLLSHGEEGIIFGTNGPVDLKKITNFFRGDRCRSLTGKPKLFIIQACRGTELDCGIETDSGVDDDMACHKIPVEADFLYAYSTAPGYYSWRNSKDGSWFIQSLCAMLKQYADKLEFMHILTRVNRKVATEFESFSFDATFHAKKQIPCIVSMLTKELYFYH

[3] = biological target: T3, Sentrin-specific protease 6 (Homo sapiens, UniProt Q9GZR1); assay: SAR Analysis of small molecule inhibitors of Sentrin-specific protease 6 (SENP6) using a Luminescent assay. [Related pubchem assays (depositor defined):AID2582, AID2599]; assay type: functional
T3 sequence (Q9GZR1 whole entry): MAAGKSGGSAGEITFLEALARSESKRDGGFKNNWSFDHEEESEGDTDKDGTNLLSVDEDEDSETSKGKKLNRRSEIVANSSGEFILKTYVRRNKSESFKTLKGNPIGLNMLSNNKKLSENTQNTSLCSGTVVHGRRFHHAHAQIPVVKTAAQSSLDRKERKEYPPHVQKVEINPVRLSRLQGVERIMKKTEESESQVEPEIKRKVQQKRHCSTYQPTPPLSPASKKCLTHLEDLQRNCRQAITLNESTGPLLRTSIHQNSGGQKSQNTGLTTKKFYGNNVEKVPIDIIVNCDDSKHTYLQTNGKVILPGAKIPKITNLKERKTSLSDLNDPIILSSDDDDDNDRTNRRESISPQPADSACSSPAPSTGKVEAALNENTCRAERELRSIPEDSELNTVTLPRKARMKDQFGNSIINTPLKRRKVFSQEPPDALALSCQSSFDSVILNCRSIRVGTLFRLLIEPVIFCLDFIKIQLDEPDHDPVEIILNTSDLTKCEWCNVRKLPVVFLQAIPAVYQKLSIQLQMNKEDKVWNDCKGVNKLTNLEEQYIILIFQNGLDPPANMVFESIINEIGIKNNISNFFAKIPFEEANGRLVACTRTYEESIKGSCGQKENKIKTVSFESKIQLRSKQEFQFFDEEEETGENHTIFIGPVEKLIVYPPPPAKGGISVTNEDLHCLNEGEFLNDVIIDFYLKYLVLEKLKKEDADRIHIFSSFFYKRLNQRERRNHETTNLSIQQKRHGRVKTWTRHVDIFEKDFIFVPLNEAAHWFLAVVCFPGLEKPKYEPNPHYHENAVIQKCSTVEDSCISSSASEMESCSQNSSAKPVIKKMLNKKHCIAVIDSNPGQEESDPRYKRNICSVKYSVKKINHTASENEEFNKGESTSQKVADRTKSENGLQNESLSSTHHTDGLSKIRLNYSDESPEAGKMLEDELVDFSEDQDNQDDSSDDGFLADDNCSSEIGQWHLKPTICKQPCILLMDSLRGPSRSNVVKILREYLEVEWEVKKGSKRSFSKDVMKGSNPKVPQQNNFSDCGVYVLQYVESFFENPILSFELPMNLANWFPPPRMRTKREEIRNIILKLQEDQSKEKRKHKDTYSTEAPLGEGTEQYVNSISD

[4] = biological target: T4, Sentrin-specific protease 8 (Homo sapiens, UniProt Q96LD8); assay: SENP8 protease inhibitors, SAR follow-up, biochemical, luminescence (AID 504501); assay type: functional
T4 sequence (Q96LD8 whole entry): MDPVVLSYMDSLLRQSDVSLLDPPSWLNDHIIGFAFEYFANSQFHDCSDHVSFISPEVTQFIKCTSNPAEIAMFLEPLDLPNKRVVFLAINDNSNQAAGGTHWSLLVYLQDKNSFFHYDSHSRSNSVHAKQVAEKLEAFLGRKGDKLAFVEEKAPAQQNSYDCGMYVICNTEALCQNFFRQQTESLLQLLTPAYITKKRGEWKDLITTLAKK

[5] = biological target: T5, Microphthalmia-associated transcription factor (Homo sapiens, UniProt O75030); assay: TRPM1 promoter luciferase signal decrease, dose response, MITF inhibitor project, cell-based, SK-MEL-5, cherry-picked, set 3 (AID 493073); assay type: functional
T5 sequence (O75030 whole entry): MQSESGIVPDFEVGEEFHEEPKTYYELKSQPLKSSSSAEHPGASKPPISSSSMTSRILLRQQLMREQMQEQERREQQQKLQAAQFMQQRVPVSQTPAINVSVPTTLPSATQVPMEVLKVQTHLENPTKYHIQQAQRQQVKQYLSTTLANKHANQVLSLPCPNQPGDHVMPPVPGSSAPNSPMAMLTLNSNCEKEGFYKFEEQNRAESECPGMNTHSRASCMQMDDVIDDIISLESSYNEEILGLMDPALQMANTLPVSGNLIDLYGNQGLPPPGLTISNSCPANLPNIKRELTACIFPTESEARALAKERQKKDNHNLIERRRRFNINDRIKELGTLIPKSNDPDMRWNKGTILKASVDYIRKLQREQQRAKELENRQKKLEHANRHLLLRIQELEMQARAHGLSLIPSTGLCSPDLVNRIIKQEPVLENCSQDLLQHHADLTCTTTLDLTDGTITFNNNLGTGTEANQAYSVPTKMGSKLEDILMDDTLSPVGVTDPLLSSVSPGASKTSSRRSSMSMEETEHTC

[6] = test system: HEK293; assay: inhibitors of LMP1-driven NF-kB reporter, dose response, cell-based, HEK293, luciferase, cherry-pick (AID 588343); assay type: functional; details: Homo sapiens
[7] = A cytotoxicity screen of small molecule inhibitors of the PhoP region in Salmonella typhi identified in the primary screen. [Related pubchem assays: 1850, 1864, 1985 ]; assay type: functional
[8] = biological target: Latent membrane protein 1 (Human herpesvirus 4 (strain B95-8), UniProt P03230); assay: TES1-eGFP NF-kB reporter inhibition versus Tet-On dsRED, dose response, selectivity assay for LMP1 NF-kB inhibitor project, imaging, HEK293T, dual-color eGFP/dsRED, cherry-picks (AID 588398); assay type: functional, cell-based
[9] = biological target: T6, Sphingosine 1-phosphate receptor 4 (Homo sapiens, UniProt O95977); assay: Late-stage fluorescence-based dose-response cell-based counterscreen assay to identify agonists of the Sphingosine 1-Phosphate Receptor 3 (S1P3): Sphingosine 1-Phosphate Receptor 4 (S1P4) agonist assay.; assay type: functional
T6 sequence (O95977 whole entry): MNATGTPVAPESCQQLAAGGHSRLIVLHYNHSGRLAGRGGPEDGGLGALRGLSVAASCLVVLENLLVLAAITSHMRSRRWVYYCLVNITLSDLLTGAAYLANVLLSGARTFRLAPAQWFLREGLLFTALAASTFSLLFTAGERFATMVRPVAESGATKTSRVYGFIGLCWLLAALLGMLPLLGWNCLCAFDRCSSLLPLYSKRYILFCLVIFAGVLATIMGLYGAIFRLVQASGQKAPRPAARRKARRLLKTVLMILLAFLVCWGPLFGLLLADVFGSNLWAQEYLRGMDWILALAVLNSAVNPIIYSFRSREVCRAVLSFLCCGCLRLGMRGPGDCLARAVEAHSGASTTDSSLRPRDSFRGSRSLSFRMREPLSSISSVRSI

[10] = biological target: Sphingosine 1-phosphate receptor 2 (Homo sapiens, UniProt O95136); assay: Late-stage fluorescence-based dose-response cell-based counterscreen assay to identify agonists of the Sphingosine 1-Phosphate Receptor 3 (S1P3): Sphingosine 1-Phosphate Receptor 2 (S1P2) agonist assay.; assay type: functional
Sphingosine 1-phosphate receptor 2, sequence (O95136 whole entry): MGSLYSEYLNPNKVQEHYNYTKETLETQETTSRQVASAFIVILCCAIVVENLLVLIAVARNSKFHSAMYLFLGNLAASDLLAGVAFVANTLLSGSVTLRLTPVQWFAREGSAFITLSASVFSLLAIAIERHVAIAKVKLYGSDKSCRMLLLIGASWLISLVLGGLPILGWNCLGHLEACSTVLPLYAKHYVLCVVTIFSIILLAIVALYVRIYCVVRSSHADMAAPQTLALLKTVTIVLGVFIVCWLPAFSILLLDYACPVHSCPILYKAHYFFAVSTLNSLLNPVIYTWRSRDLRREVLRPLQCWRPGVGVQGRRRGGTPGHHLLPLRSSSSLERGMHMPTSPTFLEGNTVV

Latent membrane protein 1, sequence (P03230 whole entry): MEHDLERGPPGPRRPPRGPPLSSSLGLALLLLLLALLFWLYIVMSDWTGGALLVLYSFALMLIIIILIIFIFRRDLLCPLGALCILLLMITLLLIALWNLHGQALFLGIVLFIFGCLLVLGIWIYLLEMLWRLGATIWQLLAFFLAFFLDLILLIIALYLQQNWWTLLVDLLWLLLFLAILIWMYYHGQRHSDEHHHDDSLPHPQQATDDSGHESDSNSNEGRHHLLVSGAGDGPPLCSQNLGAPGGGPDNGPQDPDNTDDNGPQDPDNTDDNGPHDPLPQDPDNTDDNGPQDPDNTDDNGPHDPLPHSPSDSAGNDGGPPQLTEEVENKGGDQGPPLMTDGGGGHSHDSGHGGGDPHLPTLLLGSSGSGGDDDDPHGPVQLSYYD

CN(C)CCN(C(=O)c1ccc(Cl)s1)c1nc2ccc(S(C)(=O)=O)cc2s1
inactive: IC50 [1] > 99 µM | IC50 [2] > 99 µM | IC50 [3] > 99 µM | IC50 [4] > 99 µM

Cc1cc(NCCCn2ccnc2)n2ncc(-c3ccccc3)c2n1
active: AC50 [5] 11 µM | AC50 [6] 2.56 µM | EC50 [7] > 50 µM | AC50 [8] 206 µM

CCOc1ccc(-c2nc(C(=O)N(C3CCCCC3)C3CCCCC3)co2)cc1OCC
inactive: EC50 [9] > 50 µM | EC50 [10] > 50 µM
